Measurements as given in US5840303A, “Peptides for inducing cytotoxic T lymphocyte responses to hepatitis B virus” (The Scripps Research Foundation, priority 1995, dated 1998).
Residues, ends and D or L forms follow the SMILES beside them.

Tests used:
[1] = test system: HBV core specific CTL from PBMC of patients with acute hepatitis B; conditions: patient
[2] = test system: autologous target cells pulsed with peptide HBc11-27; assay: Immunodominance of the HBc11-27 CTL epitope in HLA-A2 positive subjects; assay type: cell-based, human; conditions: one of the four chronic patients
Source text: To assess the immunodominance in the HLA-A2 haplotype of the CTL epitope(s) contained in peptide HBc11-27, eight additional subjects with self-limited acute hepatitis B infection, four patients with chronic active hepatitis B, and eight healthy subjects without evidence of previous exposure to HBV (all HLA-A2 positive) were repeatedly tested.
Patient to patient variations in the pattern of response to the peptide were observed during the course of the illness. The cytolytic activity was generally detectable during the icteric phase when transaminase values were high; in some patients the response was long-lasting, being still detectable when GPT levels had already become normal, and in other subjects the lytic activity became undetectable 2 or 3 weeks after the transaminase peak when GPT levels were still slightly altered.

With `CC(C)C[C@H](NC(=O)[C@@H](NC(=O)[C@H](CO)NC(=O)[C@@H](N)CC(C)C)[C@@H](C)O)C(=O)N1CCC[C@H]1C(=O)N[C@@H](CCC(=O)O)C(=O)N[C@H](C(=O)N[C@H](C(=O)N[C@H](C(=O)N[C@H](C(=O)N[C@@H](CCCNC(=N)N)C(=O)N[C@@H](CCCNC(=N)N)C(=O)N[C@@H](CCCNC(=N)N)C(=O)NCC(=O)N[C@@H](CCCNC(=N)N)C(=O)N[C@@H](CO)C(=O)O)C(C)C)C(C)C)[C@@H](C)O)[C@@H](C)O` [140-155] as the compound, how does the “cytotoxic activity of unstimulated PBMC against autologous B-LCL fed with peptide” value [1] read?
The value was “No cytotoxic activity was observed”.

How did the “cytotoxicity against the relevant peptide sequence” value [2] turn out when `CC(C)C[C@H](NC(=O)[C@H](CC(C)C)NC(=O)[C@H](CCC(=O)O)NC(=O)[C@@H](NC(=O)[C@@H](NC(=O)[C@H](C)N)[C@@H](C)O)C(C)C)C(=O)N[C@@H](CO)C(=O)N[C@@H](Cc1ccccc1)C(=O)N[C@@H](CC(C)C)C(=O)N1CCC[C@H]1C(=O)N[C@@H](CO)C(=O)N[C@@H](CC(=O)O)C(=O)N[C@@H](Cc1ccccc1)C(=O)N[C@@H](Cc1ccccc1)C(=O)N1CCC[C@H]1C(=O)N[C@@H](CO)C(=O)N[C@H](C(=O)O)C(C)C` [HBc11-27] (H-ATVELLSFLPSDFFPSV-OH) was run?
Its value is “detectable, though very low levels of cytotoxicity”.
